Active and inactive are the calls of the source. The rule behind the calls is not given here. Where a SMILES comes first, the peptide text is derived from it. The star is where a group is joined. X1 = O=C(c1ccccc1-c1c2ccc(=O)cc-2oc2cc(O)ccc12)*
Experiments:
[1] = system: K562; assay: Induction of apoptosis in human K562 cells incubated for 24 hrs by AnnexinV-FITC/propidium iodide staining based flow cytometric analysis; assay type: functional, cell-based; conditions: K562, 24 h
[2] = system: K562; assay: Induction of apoptosis in human K562 cells assessed as late apoptotic cells at 1.5625 to 25 uM incubated for 24 hrs by AnnexinV-FITC/propidium iodide staining based flow cytometric analysis; assay type: functional, cell-based; conditions: dose 1.5625-25 µM
[3] = system: K562; assay: Induction of apoptosis in human K562 cells assessed as early apoptotic cells at 1.5625 to 25 uM incubated for 24 hrs by AnnexinV-FITC/propidium iodide staining based flow cytometric analysis; assay type: functional, cell-based; conditions: dose 1.5625-25 µM
[4] = system: U-937; assay: Induction of apoptosis in human U-937 cells incubated for 24 hrs by AnnexinV-FITC/propidium iodide staining based flow cytometric analysis; assay type: functional, cell-based; conditions: U-937, 24 h
[5] = system: K562; assay: Induction of apoptosis in human K562 cells assessed as […] incubated for 24 hrs by AnnexinV-FITC/propidium iodide staining based flow cytometric analysis (reference value: 31 +/- 0.4 %); assay type: functional
[6] = Drug uptake in human K562 cells at 5 uM incubated for 1 hrs by flow cytometry analysis; assay type: ADME, cell-based; conditions: k562, 1 h
[7] = system: K562; assay: Induction of apoptosis in human K562 cells assessed as cell death at 10 to 20 uM incubated for 24 hrs by AnnexinV-FITC/propidium iodide staining based flow cytometric analysis; assay type: functional; conditions: dose 10-20 µM
[8] = Drug uptake in human K562 cells at 5 uM incubated for 4 hrs by Hoechst 33258 staining based fluorescence microscopic analysis; assay type: ADME, cell-based; conditions: k562, 4 h
[9] = Drug uptake in human U-937 cells at 5 uM incubated for 4 hrs by flow cytometric analysis; assay type: ADME, cell-based; conditions: u-937, 4 h

Row | Compound | IC50 [1] [µM] | IC50 [4] [µM] | Activity [5] [%] | Drug uptake [6] | further results
1 | H-FLDTLVVLHRVQRKRQKLMP-OH | 5.58 | 1390 | 36 | – | Activity [2]: Active; Activity [3]: Active
2 | H-FLDTLVVLHR-OH | 30.1 | 374 | – | – | –
3 | CC(C)C[C@H](NC(=O)[C@H](Cc1ccccc1)NC(=O)c1ccccc1-c1c2ccc(=O)cc-2oc2cc(O)ccc12)C(=O)N[C@@H](CC(=O)O)C(=O)N[C@H](C(=O)N[C@@H](CC(C)C)C(=O)N[C@H](C(=O)N[C@H](C(=O)N[C@@H](CC(C)C)C(=O)N[C@@H](Cc1cnc[nH]1)C(=O)N[C@@H](CCCNC(=N)N)C(=O)O)C(C)C)C(C)C)[C@@H](C)O (X1-FLDTLVVLHR-OH) | – | – | – | Active | –
4 | CC[C@H](C)[C@H](NC(=O)[C@@H]1CCCN1C(=O)[C@@H](NC(=O)[C@@H](C)N)C(C)C)C(=O)N[C@@H](Cc1ccccc1)C(=O)N[C@@H](CCCCN)C(=O)N[C@@H](Cc1ccccc1)C(=O)N[C@@H](CC(C)C)C(=O)N[C@@H](CC(=O)O)C(=O)N[C@H](C(=O)N[C@@H](CC(C)C)C(=O)N[C@H](C(=O)N[C@H](C(=O)N[C@@H](CC(C)C)C(=O)N[C@@H](Cc1cnc[nH]1)C(=O)N[C@@H](CCCNC(=N)N)C(=O)N[C@H](C(=O)N[C@@H](CCC(N)=O)C(=O)N[C@@H](CCCNC(=N)N)C(=O)N[C@@H](CCCCN)C(=O)N[C@@H](CCCNC(=N)N)C(=O)N[C@@H](CCC(N)=O)C(=O)N[C@@H](CCCCN)C(=O)N[C@@H](CC(C)C)C(=O)N[C@@H](CCSC)C(=O)N1CCC[C@H]1C(=O)O)C(C)C)C(C)C)C(C)C)[C@@H](C)O | – | – | 44 | – | Activity [7]: Active
5 | CSCC[C@H](NC(=O)[C@H](CC(C)C)NC(=O)[C@H](CCCCN)NC(=O)[C@H](CCC(N)=O)NC(=O)[C@H](CCCNC(=N)N)NC(=O)[C@H](CCCCN)NC(=O)[C@H](CCCNC(=N)N)NC(=O)[C@H](CCC(N)=O)NC(=O)[C@@H](NC(=O)[C@H](CCCNC(=N)N)NC(=O)[C@H](Cc1cnc[nH]1)NC(=O)[C@H](CC(C)C)NC(=O)[C@@H](NC(=O)[C@@H](NC(=O)[C@H](CC(C)C)NC(=O)[C@@H](NC(=O)[C@H](CC(=O)O)NC(=O)[C@H](CC(C)C)NC(=O)[C@H](Cc1ccccc1)NC(=O)c1ccccc1-c1c2ccc(=O)cc-2oc2cc(O)ccc12)[C@@H](C)O)C(C)C)C(C)C)C(C)C)C(=O)N1CCC[C@H]1C(=O)O (X1-FLDTLVVLHRVQRKRQKLMP-OH) | – | – | – | Active | Drug uptake [8]: Active; Drug uptake [9]: Active
